Reference: patent publication US20100267561A1, “HERBICIDAL PYRIDAZINONE DERIVATIVES” (priority 2007, published 2010)
Where two headings read alike, the source gives them in different places.

Key:
Assay type in all cases: in vivo
[1] = tested on: surinam grass (Brachiaria decumbens); test: Test B pre-/postemergence plant response; settings: for pest or weed control at 31 g/ha / pest or weed control at 62 g/ha: Urochloa decumbens, read-out: Plant response rating, Surinam Grass; for pest or weed control at 31 g/ha: 31 g ai/ha; for pest or weed control at 62 g/ha: 62 g ai/ha, 100 complete control
Procedure, shortened: (§1)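 Visual scoring from 0 (no effect) to 100 (complete control) against untreated controls was done 13 to 15 days after greenhouse treatment. Chemicals were formulated in a surfactant-containing non-phytotoxic solvent and applied to soil preemergence or to 1- to 4-leaf (2-18 cm) plants postemergence.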

[2] = tested on: bermudagrass (Cynodon dactylon); test: Test B pre-/postemergence plant response; settings: for pest or weed control at 31 g/ha: 31 g ai/ha; for pest or weed control at 62 g/ha: 62 g ai/ha, 100 complete control
Procedure, shortened: as §1

soybean (Glycine max) = test: Test B pre-/postemergence plant response; settings: for plant injury at 31 g/ha / plant injury at 62 g/ha: Glycine max, read-out: Plant response rating, Soybean; for plant injury at 31 g/ha: 31 g ai/ha; for plant injury at 62 g/ha: 62 g ai/ha, 100 complete control
Procedure, shortened: as §1

[3] = tested on: common (oilseed) sunflower (Helianthus annuus); test: Test B pre-/postemergence plant response; settings: Preemergence
Procedure, shortened: as §1

[4] = tested on: wheat (Triticum aestivum); test: Test B pre-/postemergence plant response; settings: for plant injury at 31 g/ha / plant injury at 62 g/ha: Triticum aestivum, read-out: Plant response rating, Wheat; for plant injury at 31 g/ha: 31 g ai/ha; for plant injury at 62 g/ha: 62 g ai/ha, 100 complete control
Procedure, shortened: as §1

[5] = tested on: lambsquarters (Chenopodium album); test: Test B pre-/postemergence plant response; settings: for pest or weed control at 31 g/ha / pest or weed control at 62 g/ha: Chenopodium album, read-out: Plant response rating, Lambsquarters; for pest or weed control at 31 g/ha: 31 g ai/ha; for pest or weed control at 62 g/ha: 62 g ai/ha, 100 complete control
Procedure, shortened: as §1

[6] = tested on: giant foxtail (Setaria faberii); test: Test B pre-/postemergence plant response; settings: for pest or weed control at 31 g/ha: 31 g ai/ha; for pest or weed control at 62 g/ha: 62 g ai/ha, 100 complete control
Procedure, shortened: as §1

[7] = tested on: downy bromegrass (Bromus tectorum); test: Test B pre-/postemergence plant response; settings: for pest or weed control at 31 g/ha: 31 g ai/ha; for pest or weed control at 62 g/ha: 62 g ai/ha, 100 complete control
Procedure, shortened: as §1

[8] = tested on: Italian ryegrass (Lolium multiflorum); test: Test B pre-/postemergence plant response; settings: for pest or weed control at 31 g/ha / pest or weed control at 62 g/ha: Lolium multiflorum, read-out: Plant response rating, Ryegrass, Italian; for pest or weed control at 31 g/ha: 31 g ai/ha; for pest or weed control at 62 g/ha: 62 g ai/ha, 100 complete control
Procedure, shortened: as §1

[9] = tested on: morningglory (Ipomoea coccinea); test: Test B pre-/postemergence plant response; settings: for pest or weed control at 31 g/ha / pest or weed control at 62 g/ha: Ipomoea, read-out: Plant response rating, Morningglory; for pest or weed control at 31 g/ha: 31 g ai/ha; for pest or weed control at 62 g/ha: 62 g ai/ha, 100 complete control
Procedure, shortened: as §1

[10] = tested on: pigweed (Amaranthus retroflexus); test: Test B pre-/postemergence plant response; settings: for pest or weed control at 31 g/ha / pest or weed control at 62 g/ha: Amaranthus retroflexus, read-out: Plant response rating, Pigweed; for pest or weed control at 31 g/ha: 31 g ai/ha; for pest or weed control at 62 g/ha: 62 g ai/ha, 100 complete control
Procedure, shortened: as §1

[11] = tested on: winter barley (Hordeum vulgare); test: Test B postemergence plant response; settings: for Plant response rating, Barley: Postemergence, scale 0 to 100, 0 no effect, 100 complete control
Procedure, shortened: (§2)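 Visual injury score from 0 (none) to 100 (complete control) versus controls, taken 13 to 15 days after treatment in the greenhouse; chemicals applied postemergence, as formulated, to plants of 1- to 4-leaf stage (2 to 18 cm tall); dash denotes no test result.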

[12] = tested on: chickweed (Stellaria media); test: Test B postemergence plant response; settings: for Plant response rating, Chickweed: Postemergence
Procedure, shortened: as §2

[13] = tested on: canarygrass (Phalaris minor); test: Test B postemergence plant response; settings: for Plant response rating, Canarygrass: Postemergence
Procedure, shortened: as §2

[14] = tested on: windgrass (Apera spica-venti); test: Test B postemergence plant response; settings: for Windgrass plant response rating: postemergence, 0-100 scale; for Plant response rating, Windgrass: Postemergence
Procedure, shortened: as §2

[15] = 8 g ai/ha, postemergence, 0-100 scale
[16] = 16 g ai/ha, postemergence, 0-100 scale
[17] = Preemergence, 8 g ai/ha, scale 0 to 100 (0 no effect, 100 complete control)
[18] = Preemergence, 16 g ai/ha, scale 0 to 100
[19] = post-emergence, Postemergence, scale 0 to 100
[20] = post-emergence, Postemergence, scale 0 to 100, 0 no effect
[21] = pre-emergence, Preemergence, scale 0 to 100 (0 no effect, 100 complete control)
[22] = pre-emergence, Preemergence, 0 to 100 scale, 0 no effect
[23] = 62 g ai/ha, scale 0 to 100, 0 no effect, 100 complete control

Cc1cc(-c2ccc(Br)cc2)nn1-c1c(O)cn[nH]c1=O [Compound 78, 4-[3-(4-bromophenyl)-5-methyl-1H-pyrazol-1-yl]-5-hydroxy-3(2H)-pyridazinone]
40: Bromegrass, Downy plant response rating [7, 17] | Windgrass plant response rating ([14]; 8 g ai/ha)
85%: pest or weed control at 16 g/ha ([7]; Bromus tectorum, post-emergence, Postemergence, 16 g ai/ha, scale 0 to 100, read-out: Plant response rating, Bromegrass, Downy)
98: Surinam Grass plant response rating [1, 15] | Foxtail, Giant plant response rating [6, 15] | Foxtail, Giant plant response rating [6, 17] | Ryegrass, Italian plant response rating [8, 16] | Ryegrass, Italian plant response rating [8, 17] | Ryegrass, Italian plant response rating [8, 18]
15: Soybean plant response rating (soybean (Glycine max); [16])
95: Surinam Grass plant response rating [1, 17] | Surinam Grass plant response rating [1, 18] | Plant response rating, Barley ([11]; 31 g ai/ha) | Plant response rating, Barley ([11]; 62 g ai/ha)
55: Bromegrass, Downy plant response rating [7, 15]
95%: plant injury at 62 g/ha [4, 22] | pest or weed control at 31 g/ha ([7]; Bromus tectorum, post-emergence, Postemergence, scale 0 to 100, read-out: Plant response rating, Bromegrass, Downy)
90: Ryegrass, Italian plant response rating [8, 15] | Plant response rating, Barley ([11]; 16 g ai/ha) | Plant response rating, Canarygrass ([13]; 16 g ai/ha, scale 0 to 100)
80%: pest or weed control at 31 g/ha ([7]; Bromus tectorum, pre-emergence, Preemergence, scale 0 to 100 (0 no effect, 100 complete control), read-out: Plant response rating, Bromegrass, Downy)
90%: plant injury at 31 g/ha [4, 21]
20%: plant injury at 31 g/ha (soybean (Glycine max); [19])
50: Wheat plant response rating [4, 15] | Windgrass plant response rating ([14]; 16 g ai/ha)
0: Soybean plant response rating (soybean (Glycine max); [15]) | Soybean plant response rating (soybean (Glycine max); [17]) | Soybean plant response rating (soybean (Glycine max); [18]) | Sunflower plant response rating ([3]; 8 g ai/ha, scale 0 to 100 (0 no effect, 100 complete control)) | Sunflower plant response rating ([3]; 16 g ai/ha, scale 0 to 100) | Wheat plant response rating [4, 17] | Lambsquarters plant response rating [5, 15] | Lambsquarters plant response rating [5, 16] | Lambsquarters plant response rating [5, 17] | Lambsquarters plant response rating [5, 18] | Morningglory plant response rating [9, 15] | Morningglory plant response rating [9, 16] | Morningglory plant response rating [9, 17] | Morningglory plant response rating [9, 18] | Pigweed plant response rating [10, 15] | Pigweed plant response rating [10, 16] | Pigweed plant response rating [10, 17] | Pigweed plant response rating [10, 18] | Chickweed plant response rating [12, 15] | Plant response rating, Chickweed ([12]; 16 g ai/ha, scale 0 to 100) | Plant response rating, Chickweed ([12]; 31 g ai/ha, scale 0 to 100) | Plant response rating, Chickweed [12, 23]
60: Bromegrass, Downy plant response rating [7, 18] | Plant response rating, Windgrass ([14]; 31 g ai/ha, scale 0 to 100)
80: Bermudagrass plant response rating [2, 15] | Wheat plant response rating [4, 18] | Canarygrass plant response rating [13, 15] | Plant response rating, Windgrass [14, 23]
45: Barley plant response rating [11, 15]
98%: pest or weed control at 16 g/ha ([2]; Cynodon dactylon, post-emergence, Postemergence, 16 g ai/ha, scale 0 to 100, read-out: Plant response rating, Bermudagrass) | plant injury at 31 g/ha [4, 19] | pest or weed control at 62 g/ha ([7]; Bromus tectorum, pre-emergence, Preemergence, 0 to 100 scale, 0 no effect, read-out: Plant response rating, Bromegrass, Downy)
25%: plant injury at 62 g/ha (soybean (Glycine max); [20])
0%: plant injury at 31 g/ha (soybean (Glycine max); [21]) | plant injury at 62 g/ha (soybean (Glycine max); [22]) | pest or weed control at 31 g/ha ([3]; Helianthus annuus, pre-emergence, 31 g ai/ha, scale 0 to 100 (0 no effect, 100 complete control), read-out: Plant response rating, Sunflower) | pest or weed control at 62 g/ha ([3]; Helianthus annuus, pre-emergence, 62 g ai/ha, 0 to 100 scale, 0 no effect, 100 complete control, read-out: Plant response rating, Sunflower) | pest or weed control at 31 g/ha [5, 19] | pest or weed control at 62 g/ha [5, 20] | pest or weed control at 31 g/ha [5, 21] | pest or weed control at 62 g/ha [5, 22] | pest or weed control at 31 g/ha [9, 19] | pest or weed control at 62 g/ha [9, 20] | pest or weed control at 31 g/ha [9, 21] | pest or weed control at 62 g/ha [9, 22] | pest or weed control at 31 g/ha [10, 19] | pest or weed control at 62 g/ha [10, 20] | pest or weed control at 31 g/ha [10, 21] | pest or weed control at 62 g/ha [10, 22]
100: Surinam Grass plant response rating [1, 16] | Bermudagrass plant response rating ([2]; Preemergence, 16 g ai/ha, scale 0 to 100 (0 no effect, 100 complete control)) | Foxtail, Giant plant response rating [6, 18] | Plant response rating, Canarygrass ([13]; 31 g ai/ha, scale 0 to 100) | Plant response rating, Canarygrass [13, 23]
85: Bermudagrass plant response rating [2, 17] | Wheat plant response rating [4, 16]
100%: pest or weed control at 31 g/ha [1, 19] | pest or weed control at 62 g/ha [1, 20] | pest or weed control at 31 g/ha [1, 21] | pest or weed control at 62 g/ha [1, 22] | pest or weed control at 31 g/ha ([2]; Cynodon dactylon, post-emergence, Postemergence, scale 0 to 100, read-out: Plant response rating, Bermudagrass) | pest or weed control at 62 g/ha ([2]; Cynodon dactylon, post-emergence, Postemergence, scale 0 to 100, 0 no effect, read-out: Plant response rating, Bermudagrass) | pest or weed control at 31 g/ha ([2]; Cynodon dactylon, pre-emergence, Preemergence, scale 0 to 100 (0 no effect, 100 complete control), read-out: Plant response rating, Bermudagrass) | pest or weed control at 62 g/ha ([2]; Cynodon dactylon, pre-emergence, Preemergence, 0 to 100 scale, 0 no effect, read-out: Plant response rating, Bermudagrass) | plant injury at 62 g/ha [4, 20] | pest or weed control at 16 g/ha ([6]; Setaria faberi, post-emergence, Postemergence, 16 g ai/ha, scale 0 to 100, read-out: Plant response rating, Foxtail, Giant) | pest or weed control at 31 g/ha ([6]; Setaria faberi, post-emergence, Postemergence, scale 0 to 100, read-out: Plant response rating, Foxtail, Giant) | pest or weed control at 62 g/ha ([6]; Setaria faberi, post-emergence, Postemergence, scale 0 to 100, 0 no effect, read-out: Plant response rating, Foxtail, Giant) | pest or weed control at 31 g/ha ([6]; Setaria faberi, pre-emergence, Preemergence, scale 0 to 100 (0 no effect, 100 complete control), read-out: Plant response rating, Foxtail, Giant) | pest or weed control at 62 g/ha ([6]; Setaria faberi, pre-emergence, Preemergence, 0 to 100 scale, 0 no effect, read-out: Plant response rating, Foxtail, Giant) | pest or weed control at 62 g/ha ([7]; Bromus tectorum, post-emergence, Postemergence, scale 0 to 100, 0 no effect, read-out: Plant response rating, Bromegrass, Downy) | pest or weed control at 31 g/ha [8, 19] | pest or weed control at 62 g/ha [8, 20] | pest or weed control at 31 g/ha [8, 21] | pest or weed control at 62 g/ha [8, 22]
